From patent publication US10323044B2, “Crystal of imidazo-oxazine, pharmaceutical composition containing said crystal, and method for producing said crystal” (TAIHO PHARMACEUTICAL CO., LTD., priority 2015, dated 2019)

Test: Solid stability test (storage stability; powder X-ray diffraction and HPLC analog amount)
Type: physicochemical
Conditions: 40° C. (hermetically sealed), six months, brown glass bottle
Experimental: Powder X-ray diffraction was performed by lightly pulverizing an appropriate amount of a test substance using an agate mortar as necessary, and measuring the test substance in accordance with the following test conditions.
The storage stability of crystal I of the imidazooxazine compound obtained in accordance with Example 1 was tested after six months of storage at 40° C.
Storage condition: 40° C. (hermetically sealed)
Measurement point: Six months
Container: Brown glass bottle
The powder X-ray diffraction of the sample after storage was measured using the method described above. Alternations in analog amount were analyzed by HPLC according to the following manner.
Method for preparing a sample solution: the sample was dissolved in 50% acetonitrile so that the concentration of the sample became 0.5 mg/mL.
Column: Acentis express C18, 4.6×150 mm, 2.7 μm,
Column temperature: 40° C.
Column flow rate: 1.5 mL/min
Mobile phase: A; 0.1% phosphate, B; acetonitrile

changes in powder X-ray diffraction pattern after storage: not observed
amount of analogs (HPLC) after storage (HPLC UV 210 nm): not increased
Structure (SMILES): C[C@]1(O)C[C@@](N)(c2ccc(-c3nc4n(c3-c3ccccc3)COc3ccncc3-4)cc2)C1 [crystal I, trans-3-amino-1-methyl-3-(4-(3-phenyl-5H-imidazo[1,2-c]pyrido[3,4-e][1,3]oxazin-2-yl)phenyl)cyclobutanol]
